Results reported in US20110105409A1, “Anticancer Compounds” (priority 2008, published 2011).
Starred links: 1 amine or outer side, 2 acyl side, 3 side chain; linkers in the order of their positions; H or OH if unused. Positions of bridges follow the written chain, without caps; N, C: chain ends. Non-standard residues stand in square brackets, D forms with d. Residues, ends and D or L forms follow the SMILES beside them. ξ: configuration not given here. *: point of attachment. γ4hArg(2R,3R-(OH)2) = N=C(N)NCCC[C@H](N[*:1])[C@@H](O)[C@@H](O)C(=O)[*:2]; Heptanoyl(3R-OH,2R,4R,6-Me3) = CC(C)C[C@@H](C)[C@@H](O)[C@@H](C)C(=O)*; Gln(3S,4R-Me2) = C[C@H]([C@H](N)C(=O)O)[C@@H](C)C(N)=O; ξThr(3R)(O-yl) = C[C@@H](O[*:3])C(N[*:1])C(=O)[*:2]; dTyr(βR-OMe) = CO[C@H](c1ccc(O)cc1)[C@@H](N)C(=O)O; X6 = C[C@H](C(N[*:1])C(=O)[*:2])[C@@H](C)C(N)=O; X7 = CO[C@H](c1ccc(O)cc1)C(N[*:1])C(=O)[*:2]; dAsn(3S-OH) = NC(=O)[C@@H](O)[C@@H](N)C(=O)O; X5 = C[C@@H]1[C@@H](C(=O)*)NC(=O)[C@@H]1C; X4 = CC(C)(O)C(N[*:1])C(O)C(O)C(=O)[*:2]; ξGln(3,4-Me2) = CC(C(N)=O)C(C)C(N)C(=O)O; Abu(3S-NH2) = C[C@H](N)[C@H](N)C(=O)O; ξAsn(3ξ-OMe) = COC(C(N)=O)C(N)C(=O)O; d(aThr) = C[C@@H](O)[C@@H](N)C(=O)O; NMeQ = CN[C@@H](CCC(N)=O)C(=O)O; X1 = CC(C)CC(C)/C=C\C(O)CC(=O)*; ξThr(3R) = C[C@@H](O)C(N)C(=O)O; X3 = CCC(C)CC(C)C(O)C(C)C(=O)*; NMeL = CN[C@@H](CC(C)C)C(=O)O; X2 = CCCC(C)/C=C\C(O)CC(=O)*; Pip = O=C(O)[C@@H]1CCCCN1; NMeA = CN[C@@H](C)C(=O)O; dDap = NC[C@@H](N)C(=O)O; ξOrn = NCCCC(N)C(=O)O

Experiments:
[1] = system: MDA-MB-231; experiment: SRB colorimetric cytotoxicity assay, MDA-MB-231; format: cell-based, human; conditions: for CC50 / GI50: Homo sapiens; for CC50: MDA-MB-231, 72 h, read-out: LC50; for GI50 / TGI: MDA-MB-231, 72 hours treatment, SRB
Excerpt: (§1) The aim of this assay is to evaluate the in vitro cytostatic (ability to delay or arrest tumor cell growth) or cytotoxic (ability to kill tumor cells) activity of the samples being tested.
(§2) A colorimetric assay, using sulforhodamine B (SRB) reaction has been adapted to provide a quantitative measurement of cell growth and viability (following the technique described by Skehan et al. J. Natl. Cancer Inst. 1990, 82, 1107-1112).
(§3) This form of assay employs SBS-standard 96-well cell culture microplates (Faircloth et al. Methods in Cell Science, 1988, 11(4), 201-205; Mosmann et al, Journal of Immunological Methods, 1983, 65(1-2), 55-63). All the cell lines used in this study were obtained from the American Type Culture Collection (ATCC) and derive from different types of human cancer.
(§4) Cells were maintained in Dulbecco's Modified Eagle Medium (DMEM) supplemented with 10% Fetal Bovine Serum (FBS), 2 mM L-glutamine, 100 U/mL penicillin and 100 U/mL streptomycin at 37° C., 5% CO2 and 98% humidity. For the experiments, cells were harvested from subconfluent cultures using trypsinization and resuspended in fresh medium before counting and plating.
(§5) Cells were seeded in 96 well microtiter plates, at 5×10^3-7.5×10^3 cells per well in aliquots of 150 μL, and allowed to attach to the plate surface for 18 hours (overnight) in drug free medium. After that, one control (untreated) plate of each cell line was fixed (as described below) and used for time zero reference value. Culture plates were then treated with test compounds (50 μL aliquots of 4× stock solutions in complete culture medium plus 4% DMSO) using ten serial dilutions (concentrations ranging from 10 to 0.00262 μg/mL) and triplicate cultures (1% final concentration of DMSO). After 72 hours treatment, the antitumor effect was measured by using the SRB methodology: Briefly, cells were washed twice with PBS, fixed for 15 min in 1% glutaraldehyde solution at room temperature, rinsed twice in PBS, and stained in 0.4% SRB solution for 30 min at room temperature. Cells were then rinsed several times with 1% acetic acid solution and air-dried at room temperature. SRB was then extracted in 10 mM trizma base solution and the absorbance measured in an automated spectrophotometric plate reader at 490 nm. Effects on cell growth and survival were estimated by applying the NCI algorithm (Boyd M R and Paull K D. Drug Dev. Res. 1995, 34, 91-104).
(§6) Using the mean±SD of triplicate cultures, a dose-response curve was automatically generated using nonlinear regression analysis. Three reference parameters were calculated (NCI algorithm) by automatic interpolation: GI50=compound concentration that produces 50% cell growth inhibition, as compared to control cultures; TGI=compound concentration that produces total cell growth inhibition (cytostatic effect), as compared to control cultures, and LC50=compound concentration that produces 50% net cell killing (cytotoxic effect).

[2] = system: HT29; experiment: SRB colorimetric cytotoxicity assay, HT29; format: cell-based, human; conditions: for TGI / GI50: HT29, 72 hours treatment, SRB; for CC50 / GI50: Homo sapiens; for CC50: HT-29, 72 h, read-out: LC50; for GI50: HT-29
Excerpt: as §1, §2, §3, §4, §5, §6

[3] = system: A549; experiment: SRB colorimetric cytotoxicity assay, A549; format: cell-based, human; conditions: for TGI / GI50: A549, 72 hours treatment, SRB; for CC50 / GI50: Homo sapiens; for CC50: A549, 72 h, read-out: LC50
Excerpt: as §1, §2, §3, §4, §5, §6

[4] = system: HIV-1; conditions: cytoprotective activity against HIV-1 infection; cited from earlier work
[5] = system: HIV-1RF; conditions: infection of human T-lymphoblastoid cells by HIV-1RF in vitro; cited from earlier work
[6] = system: Na^+/Ca^2+ exchanger; conditions: cited from earlier work
[7] = system: Candida albicans; conditions: 100 μg/disc (6 mm); cited from earlier work
[8] = system: guinea pig atria; conditions: cited from earlier work
[9] = system: CEM4 lymphocytic cell lines; conditions: CEM4 lymphocytic cell lines infected with HIV-1 (Lai strain); cited from earlier work
[10] = system: HIV-1 (Lai strain); conditions: CEM4 cells; cited from earlier work
[11] = system: panel of human cancer cell lines; conditions: mean over panel of human cancer cell lines; cited from earlier work
[12] = system: NSCLC-N6, E39, P388, and M96 tumor cells; conditions: range over NSCLC-N6, E39, P388 and M96 tumor cells; cited from earlier work
[13] = system: CEM-TART (CEM T-cells expressing both HIV-1 tat and rev); conditions: CEM-TART cell line, cytotoxic activity; cited from earlier work
[14] = system: HCT-116 (human colon tumor); conditions: HCT-116 cell line, cytotoxic activity; cited from earlier work

COC[C@H]1NC(=O)[C@H](NC(=O)C(NC(=O)[C@@H](NC(=O)[C@H](NC(=O)[C@H](NC(=O)CC(O)/C=C\C(C)CC(C)C)[C@H](O)C(N)=O)[C@@H](C)O)[C@H](C)N)C(C)C(C)C(N)=O)[C@@H](C)OC(=O)[C@H](C)N(C)C(=O)[C@@H]([C@H](OC)c2ccc(O)cc2)NC(=O)[C@H](CCC(N)=O)N(C)C(=O)[C@H](CC(C)C)NC(=O)CNC1=O (stereo partly drawn) [Stellatolide A] (X1-[dAsn(3S-OH)][d(aThr)][Abu(3S-NH2)][ξGln(3,4-Me2)][d(aThr)][dS](Me)GL[NMeQ][dTyr(βR-OMe)][NMeA]; ester 5-C) showed a CC50 [1] of 0.761 µM, a GI50 [1] of 0.33 µM and a TGI [1] of 4.95E−07 Molar. The TGI [2] was 8.88E−07 Molar, the CC50 [2] was 1.33 µM and the GI50 [2] was 0.603 µM. It also gave a TGI [3] of 1.97E−07 Molar, a CC50 [3] of 0.406 µM and a GI50 [3] of 0.101 µM.

For CO[C@H](c1ccc(O)cc1)C1NC(=O)[C@H](CCC(N)=O)N(C)C(=O)[C@H](CC(C)C)NC(=O)[C@@H](CCCNC(=N)N)NC(=O)C([C@@H](C)O)NC(=O)C(NC(=O)C(NC(=O)[C@H](O)[C@H](O)[C@H](CCCNC(=N)N)NC(=O)[C@H](CC(N)=O)NC(=O)[C@H](C)[C@H](O)[C@H](C)CC(C)C)[C@@H](C)[C@@H](C)C(N)=O)[C@@H](C)OC(=O)[C@@H]2CCCCN2C(=O)[C@@H](CC(N)=O)NC1=O (stereo partly drawn) [neamphamide A] ({Heptanoyl(3R-OH,2R,4R,6-Me3)}-N[γ4hArg(2R,3R-(OH)2)][X6][ξThr(3R)(O-yl)][ξThr(3R)][dR]L[NMeQ][X7][dN][Pip]; ester 4-C), the EC50 [4] is listed as about 0.028 µM.

In the case of papuamide B, the EC50 [5] is listed as “approximately 4 ng/mL”.

Work on CCCC(C)/C=C\C(O)CC(=O)N[C@@H](C(=O)N[C@@H](C(=O)N[C@H](C(=O)NC(C(=O)N[C@H]1C(=O)N[C@H](COC)C(=O)NCC(=O)N[C@@H](CC(C)C)C(=O)N(C)[C@@H](CCC(N)=O)C(=O)N[C@H]([C@H](OC)c2ccc(O)cc2)C(=O)N(C)[C@@H](C)C(=O)O[C@@H]1C)C(C)C(C)C(N)=O)[C@H](C)N)[C@@H](C)O)[C@H](O)C(N)=O (stereo partly drawn) [Stellatolide B] (X2-[dAsn(3S-OH)][d(aThr)][Abu(3S-NH2)][ξGln(3,4-Me2)][d(aThr)][dS](Me)GL[NMeQ][dTyr(βR-OMe)][NMeA]; ester 5-C) yielded a CC50 [1] of 1.73 µM, a GI50 [1] of 0.704 µM and a TGI [1] of 1.09E−06 Molar. The TGI [2] was 1.60E−06 Molar, the CC50 [2] was 2.37 µM and the GI50 [2] was 1.15 µM. For the same compound, the TGI [3] was 1.09E−06 Molar, the CC50 [3] was 1.92 µM and the GI50 [3] was 0.64 µM.

For CO[C@H](c1ccc(O)cc1)[C@H]1NC(=O)[C@H](CCC(N)=O)N(C)C(=O)[C@H](CC(C)C)NC(=O)[C@@H](CCCN=C(N)N)NC(=O)[C@H]([C@@H](C)O)NC(=O)[C@@H](NC(=O)[C@@H](NC(=O)[C@H](O)[C@H](O)[C@H](CCCN=C(N)N)NC(=O)[C@@H](C)NC(=O)[C@H](C)[C@H](O)[C@H](C)CC(C)C)[C@@H](C)[C@@H](C)C(N)=O)[C@@H](C)OC(=O)[C@H](C)N(C)C1=O [callipeltin A] ({Heptanoyl(3R-OH,2R,4R,6-Me3)}-[dA][γ4hArg(2R,3R-(OH)2)][Gln(3S,4R-Me2)]TT[dR]L[NMeQ][dTyr(βR-OMe)][NMeA]; ester 4-C), the “inhibition of the Na+/Ca2+ exchanger” value [6] is listed as “selective and powerful inhibitor”, the “inhibition of growth (zone)” value [7] is listed as 30 mm and the inotropic effect [8] is listed as “positive inotropic agent”. The CD50 [9] was 0.29 µg/mL and the “selectivity index (SI ratio CD50/ED50)” value [10] was 29.

For papuamide A, the “mean IC50” value [11] is given as 0.075 mg/L and the EC50 [5] is given as “approximately 4 ng/mL”.

In the case of CO[C@H](c1ccc(O)cc1)[C@H]1NC(=O)[C@H](CCC(N)=O)N(C)C(=O)[C@H](CC(C)C)NC(=O)[C@@H](CCCNC(=N)N)NC(=O)[C@@H]([C@@H](C)O)NC(=O)[C@H](NC(=O)[C@H]2NC(=O)[C@H](C)[C@@H]2C)[C@@H](C)OC(=O)[C@H](C)N(C)C1=O [callipeltin B] (X5-[d(aThr)][d(aThr)][dR]L[NMeQ][dTyr(βR-OMe)][NMeA]; ester 1-C), the IC50 [12] is given as 1.3 to >30 μg/mL.

In the case of CCC(C)CC(C)C(O)C(C)C(=O)N[C@H](CN)C(=O)NC(C(O)C(O)C(=O)NC(C(=O)N[C@H]1C(=O)N[C@H]([C@@H](C)O)C(=O)NC(CCCN)C(=O)N[C@@H](CC(C)C)C(=O)N(C)[C@@H](CCC(N)=O)C(=O)NC(C(OC)C(N)=O)C(=O)N[C@H](CC(N)=O)C(=O)N(C)[C@@H](CC(C)C)C(=O)O[C@@H]1C)C(C)C(C)C(N)=O)C(C)(C)O (stereo partly drawn) [theopapuamide] (X3-[dDap][X4][ξGln(3,4-Me2)][d(aThr)][d(aThr)][ξOrn]L[NMeQ][ξAsn(3ξ-OMe)][dN][NMeL]; ester 4-C), the EC50 [13] is listed as 0.5 µM and the EC50 [14] is listed as 0.9 µM.
